# Measured values as given in US20250213569A1, “METHODS AND COMPOSITIONS FOR MEASURING AND INHIBITING EXONUCLEASE ACTIVITY” (priority 2020, published 2025).
# Like-named read-outs stand apart in the source and are kept apart here.
# Assays:
# [1] = target: SARS-CoV2 NSP14/NSP10 exonuclease (Severe acute respiratory syndrome coronavirus 2 (2019-nCoV) (SARS-CoV-2), UniProt P0DTD1); experiment: biochemical; parameters: inhibition of NSP14/NSP10 complex exonuclease activity: dose or concentration left out as unconfirmed; details: for Inhibitory activity present: class symbols − to +++++, key not given
# A549 cells [2] = experiment: AlamarBlue viability assay; details: A549 human lung cells, 48 hours
# unbound NSP10 = experiment: FRET-based activity assay, non-specific background of unbound NSP10; assay type: biochemical; details: dose-response, FIG. 11B
# NSP14/10 complex = NSP14/10 complex (Severe acute respiratory syndrome coronavirus 2 (2019-nCoV) (SARS-CoV-2), UniProt P0DTD1); experiment: Gel electrophoresis assay of Oligo B digestion; assay type: biochemical; details: for NSP14/NSP10 complex inhibitory potential (gel): concentrations as in FIG. 55
# [3] = Solubility issue (Table 2)
# HCoV-OC43 = HCoV-OC43 infection of HMC3 cells, combination with remdesivir; assay type: cell-based; details: #112: 60 μM, #77: […] μM, #68: 25 μM
# A549 cells [4] = tested on: A549 cells
# SARS-CoV2 = assay type: cell-based; details: A549-ACE2 cells; #112: 60 μM, #77: […] μM, #68: 25 μM
# [5] = Table 2, read-out: SARS-CoV2 IC50
# [6] = Oligo D, linear reaction range, less than 60% of total substrate consumed at readout, read-out: half maximal inhibitory concentration (IC50)
compound,measurement,setting,value
"O=C1Cc2ccccc2C(=O)N1O [Compound 13, 2-Hydroxyisoquinoline-1,3(2H,4H)-dione]",inhibition of NSP14/NSP10 complex exonuclease activity,[1]; Oligo E (TexasRed-BHQ2),showed inhibition
same,Toxicity at IC50,A549 cells [2],Yes
same,inhibition of non-specific background of NSP10,unbound NSP10,did not inhibit the non-specific background of NSP10
same,"Inhibition of NSP14/10 (Oligo B digestion, gel)",NSP14/10 complex; 500 μM versus 100 μM,greater at higher (500 μM) versus lower (100 μM) concentrations
"O=c1oc2ccccc2c(O)c1Cc1c(O)c2ccccc2oc1=O [Compound 23, Dicoumarol, reference compound]",IC50,[1]; [5],> 500 µM
"O=C(O)c1cc(Cc2ccc(O)c(C(=O)O)c2)ccc1O [Compound 30, 5,5′-Methylenedisalicylic acid]",Toxicity at IC50,A549 cells [2],No
"O=C(NCc1ncc[nH]1)c1c(O)cnc2ccccc12 [Compound 31, 3-Hydroxy-N-[(1H-imidazol-2-yl)methyl]quinoline-4-carboxamide]",Toxicity at IC50,A549 cells [2],No
"O=C(O)c1cc2cc(-c3ccccc3)ccc2[nH]c1=O [Compound 53, 2-Oxo-6-phenyl-1H-quinoline-3-carboxylic acid]",Toxicity at IC50,A549 cells [2],no
"Oc1ccc(CC2NCCc3cc(O)c(O)cc32)cc1O (stereo not shown) [Compound 54, Tetrahydropapaveroline]",Toxicity at IC50,A549 cells [2],no
same,Solubility issue,[3],no
same,NSP14/NSP10 complex inhibitory potential (gel),NSP14/10 complex,indeed novel NSP14 inhibitors
"CC(C)=CCc1cc(C(=O)/C=C/c2ccc(O)cc2)c(O)cc1O [Compound 57, Bavachalcone]",Toxicity at IC50,A549 cells [2],yes
"COc1cc(O)c(CC=C(C)C)c(O)c1C(=O)/C=C/c1ccc(O)cc1 [Compound 58, Xanthohumol]",Toxicity at IC50,A549 cells [2],yes
"O=C(O)c1c(O)c(Cc2ccc(Cl)cc2)nc2c3c(ccc12)CCCC3 [Compound 59, 2-(4-Chlorobenzyl)-3-hydroxy-7,8,9,10-tetrahydrobenzo(H)quinoline-4-carboxylic acid]",Toxicity at IC50,A549 cells [2],yes
"Cc1c(S(=O)(=O)[O-])oc2c1C(=O)C(=O)c1c-2ccc2c1CCCC2(C)C.[Na+] [Compound 60, Tanshinone IIA sulfonate]",Toxicity at IC50,A549 cells [2],no
same,Solubility issue,[3],no
"O=c1cc(-c2ccc(O)cc2)oc2cc(O)c(O)c(O)c12 [Compound 62, Scutellarein]",Toxicity at IC50,A549 cells [2],no
"CC(C)c1cc(Cc2cc(C(C)C)cc(C(=O)O)c2O)c(O)c(C(=O)O)c1 [Compound 65, 3-[(3-Carboxy-2-hydroxy-5-propan-2-ylphenyl)methyl]-2-hydroxy-5-propan-2-ylbenzoic acid]",Toxicity at IC50,A549 cells [2],no
"CC(C)=CCOc1ccc(/C=C/C(=O)c2ccc(OCC=C(C)C)cc2OCC(=O)O)cc1 [Compound 68, Sofalcone, reference compound]",IC50,[1]; read-out: SARS-CoV2 IC50,22 ± 6.02 µM
same,lowering of the EC50 values of remdesivir,HCoV-OC43,~5 fold
same,Toxicity at IC50,A549 cells [4],Some
same,lowering of the EC50 values of remdesivir,SARS-CoV2,~5 fold
same,NSP14/NSP10 complex inhibitory potential (gel),NSP14/10 complex,indeed novel NSP14 inhibitors
"CC(C)=CCc1c2c(c3occ(-c4ccc(O)c(O)c4)c(=O)c3c1O)C=CC(C)(C)O2 [Compound 69, Pomiferin]",Toxicity at IC50,A549 cells [4],Yes
"CC(C)=CCc1c(O)cc(O)c(C(=O)/C=C/c2ccc(O)cc2)c1O [Compound 71, Desmethylxanthohumol]",Inhibitory activity present,[1],+++/ ++++
same,Toxicity at IC50,A549 cells [2],Yes
"CC(C)=CCc1c(O)ccc(C(=O)/C=C/c2ccc(O)c(O)c2)c1O [Compound 72, Corylifol B]",Inhibitory activity present,[1],+++/ ++++
"O=C(/C=C/c1ccc(O)cc1)c1c(O)cc(O)cc1O [Compound 73, Naringenin chalcone]",Toxicity at IC50,A549 cells [2],Yes
"CC(C)=CCc1c(O)ccc(C(=O)/C=C/c2ccc(O)cc2O)c1O [Compound 74, Morachalcone A]",Toxicity at IC50,A549 cells [2],Yes
"CC1(C)CCc2c(O)ccc(C(=O)/C=C/c3ccc(O)cc3)c2O1 [Compound 75, Isodorsmanin A]",Toxicity at IC50,A549 cells [2],Yes
"O=C(/C=C/c1ccc(O)c(O)c1)c1ccc(O)c(O)c1O [Compound 76, Okanin]",Toxicity at IC50,A549 cells [2],Yes
"CC(C)=CCc1c(O)ccc(C(=O)/C=C/c2ccc(O)cc2)c1O [Compound 77, Isobavachalcone]",IC50,[1]; read-out: SARS-CoV2 IC50,17.4 ± 1.39 µM
same,lowering of the EC50 values of remdesivir,HCoV-OC43,~5 fold
same,Toxicity at IC50,A549 cells [2],some
same,lowering of the EC50 values of remdesivir,SARS-CoV2,~5 fold
same,NSP14/NSP10 complex inhibitory potential (gel),NSP14/10 complex,indeed novel NSP14 inhibitors
"Cc1ccc2ccc(C(=O)O)c(O)c2n1 [Compound 78, 2-methyl-8-hydroxyquinoline-7-carboxylic acid]",Toxicity at IC50,A549 cells [2],No
"O=C(O)c1ccc2ccc(/C=C/c3ccc(O)c(O)c3)nc2c1O [Compound 79, 2-(3,4-dihydroxystyryl)-8-hydroxyquinoline-7-carboxylic acid]",Toxicity at IC50,A549 cells [2],No
"O=C(O)c1ccc2ccc(/C=C/c3cc(Br)c(O)c(Br)c3)nc2c1O [Compound 88, 2-(3,5-dibromo-4-hydroxystyryl)-8-hydroxyquinoline-7-carboxylic acid]",Toxicity at IC50,A549 cells [2],No
"O=C(O)c1ccc2ccc(/C=C/c3ccc(F)c(F)c3)nc2c1O [Compound 89, 2-(3,4-difluorostyryl)-8-hydroxyquinoline-7-carboxylic acid]",Toxicity at IC50,A549 cells [2],Yes
"O=C(O)c1cc(/C=C/c2ccc3ccc(C(=O)O)c(O)c3n2)ccc1O [Compound 90, 2-(3-carboxy-4-hydroxystyryl)-8-hydroxyquinoline-7-carboxylic acid]",Toxicity at IC50,A549 cells [2],No
"Oc1ccc(/C=C/c2ccc3cccc(O)c3n2)cc1O [Compound 92, 2-(3,4-dihydroxystyryl)-8-hydroxyquinoline]",Toxicity at IC50,A549 cells [2],Yes
"O=C(c1ccc(F)c(F)c1)c1ccc2ccc(/C=C/c3ccc(O)c(O)c3)nc2c1O [Compound 93, 7-(3,4-difluorobenzoyl)-2-(3,4-dihydroxyvinyl)-8-hydroxyquinoline]",Toxicity at IC50,A549 cells [2],Yes
"O=C(O)c1ccc2ccc(CCc3ccc(O)c(O)c3)nc2c1O [Compound 94, 2-(3,4-dihydroxyphenethyl)-8-hydroxyquinoline-7-carboxylic acid]",Toxicity at IC50,A549 cells [2],No
"O=C(O)c1ccc2nc(/C=C/c3ccc(O)c(O)c3)ccc2c1O [Compound 99, 2-(3,4-dihydroxystyryl)-5-hydroxyquinoline-6-carboxylic acid]",Toxicity at IC50,A549 cells [2],Yes
"O=P(O)(O)c1ccc2ccc(CCc3ccc(O)c(O)c3)nc2c1O [Compound 100, 2-(3,4-dihydroxyphenethyl)-8-hydroxyquinoline-7-phosphonic acid]",Toxicity at IC50,A549 cells [2],No
"O=c1c2[nH]c3ccccc3c2ncn1CCc1ccc(F)cc1 [Compound 105, 3-[2-(4-Fluorophenyl)ethyl]-3,5-dihydro-4H-pyrimido[5,4-b]indol-4-one]",IC50,[1]; [5],217 µM
"COc1ccc2nc(O)c(-c3noc(-c4ccc(F)cc4)n3)cc2c1 [Compound 109, 3-(5-(4-Fluorophenyl)-1,2,4-oxadiazol-3-yl)-6-methoxyquinolin-2-ol]",Solubility issue,[3],No
"O=C(NCc1ccc(F)cc1)C1C(=O)N(O)C(=O)c2cc(C(F)(F)F)ccc21 (stereo not shown) [Compound 112, 7-trifluoromethyl-N-(4-fluorobenzyl)-2-hydroxy-1,3-dioxo-4H-isoquinoline-4-carboxamide]",lowering of the EC50 values of remdesivir,HCoV-OC43,~5 fold
same,lowering of the EC50 values of remdesivir,SARS-CoV2,~5 fold
same,NSP14/NSP10 complex inhibitory potential (gel),NSP14/10 complex,indeed novel NSP14 inhibitors
O=c1oc2ccccc2c(O)c1Cc1c(O)c2ccccc2oc1=O [Dicoumarol],IC50,[1]; [6],> 500 µM
CC(C)=CCc1c(O)ccc(C(=O)/C=C/c2ccc(O)cc2)c1O [Isobavachalcone],IC50,[1]; [6],16.6 µM
CC(C)=CCc1c2c(c3occ(-c4ccc(O)c(O)c4)c(=O)c3c1O)C=CC(C)(C)O2 [Pomiferin],IC50,[1]; [6],5.9 µM
CC(C)=CCOc1ccc(/C=C/C(=O)c2ccc(OCC=C(C)C)cc2OCC(=O)O)cc1 [Sofalcone],IC50,[1]; [6],28.8 µM
